Legend:
DU-145 = assay: Cell proliferation in treated cell lines; format: cell-based, human; conditions: treated cell line; 0 to 200 μM or 1000 μM
HIV-1RF = assay: CEM-SS cell-based assay, inhibition of HIV-induced cell killing (XTT); conditions: 3.2 μM to 1 mM
Method: Cell Preparation: Prior to infection, CEM-SS cells were grown in complete tissue culture medium (RPMI 1640 medium with 10% heat-inactivated fetal bovine serum, 2 mM L-glutamine, 100 U/mL penicillin, 100 μg/mL streptomycin, 10 μg/mL gentamycin) and transferred to T-150 flasks. On the day preceding the assay, the cells were split 1:2 to assure the cells would be in an exponential growth phase at time of infection. On the day of assay, the cells were washed twice with tissue culture medium and resuspended in fresh tissue culture medium. […]
Virus Preparation: Pre-tittered aliquots of HIV-1ROJO and HIV-1RF were removed from the freezer (−80° C.) and thawed to room temperature in a biological safety cabinet. The virus was resuspended and diluted into tissue culture medium such that the amount of virus added to each well in a volume of 50 μL will be the amount determined to give complete cell killing at 6 days post-infection.
Tetrazolium dye staining of screening plates: After 6 days of incubation (37° C. with 5% CO2), the test plates were analyzed by staining with the tetrazolium dye XTT (2,3-b (2-methoxy-4-nitro-5-sulfophenyl)-2H-tetrazolium-5-carboxanilide). XTT-tetrazolium is metabolized by mitochondrial enzymes of metabolically active cells to a soluble formazan product, allowing the rapid quantitative analysis of the inhibition of HIV-induced cell killing by anti-HIV compounds. […]

HT1080 = assay: Cell proliferation in treated cell lines; format: cell-based, human; conditions: treated cell line; 0 to 200 μM or 1000 μM
PBMCs = format: cell-based, human; conditions: human, 6 days
Method: For the standard PBMC assay, PHA-P stimulated cells from at least two normal donors were pooled, diluted in fresh medium to a final concentration of 1×10^6 cells/mL, and plated in the interior wells of a 96 well round bottom microplate at 50 μL/well (5×10^4 cells/well). Test drug dilutions were prepared at a 2× concentration in microfuge tubes and 100 μL of each concentration was placed in appropriate wells in a standard format. A predetermined dilution of virus stock was placed in each test well (50 μL, final MOI≅0.1). Wells with cells and virus alone were used for virus control. Separate plates were prepared identically without virus for drug cytotoxicity studies using an XTT assay system. […]
Tetrazolium dye staining of screening plates: After 6 days of incubation (37° C. with 5% CO2), the test plates were analyzed by staining with the tetrazolium dye XTT (2,3-b (2-methoxy-4-nitro-5-sulfophenyl)-2H-tetrazolium-5-carboxanilide). XTT-tetrazolium is metabolized by mitochondrial enzymes of metabolically active cells to a soluble formazan product, allowing the rapid quantitative analysis of the inhibition of HIV-induced cell killing by anti-HIV compounds. […] Plates were sealed with adhesive plate sealers and inverted several times to mix the soluble formazan product and the plate was read spectrophotometrically at 450 nm with a Molecular Devices Vmax plate reader. […]

gp120 = target: T1, gp120 (Human immunodeficiency virus type 1 group M subtype B, UniProt P05877); assay: Inhibition of gp120 binding, HIVMN to CEM-SS cells; set-up: species or system HIV
T1 construct: host or cells: HIV MN virus added to CEM-SS cells

HSF = assay: Cell proliferation in treated cell lines; format: cell-based, Human; conditions: treated cell line; 0 to 200 μM or 1000 μM
X4 strain LAI/IIIB = assay: RT activity in infected PBMCs treated with carbohydrates; format: cell-based, HIV; conditions: summary of Table 17
Method: Reverse Transcriptase Activity Assay: A microtiter based reverse transcriptase (RT) reaction was utilized as described by Buckheit et al., (1991), AIDS Research and Human Retroviruses, 7: 295-302. Tritiated thymidine triphosphate (3H-TTP) was suspended in distilled H2O at 5 Ci/mL. Poly rA and oligo dT were prepared as a stock solution which was kept at −20° C. RT reaction buffer was prepared fresh on a daily basis and contained 125 μL 1M EGTA, 125 μL dH2O, 110 μL 10% SDS, 50 μL 1M Tris (pH 7.4), 50 μL 1M DTT, and 40 μL 1M MgCl2. These three solutions were mixed together in a ratio of 2 parts 3H-TTP, 1 part poly rA:oligo dT, and 1 part reaction buffer. Ten microliters of this reaction mixture were placed in a round bottom microtiter plate and 15 μL of virus containing supernatant were added and mixed. The plate was incubated at 37° C. in a water bath with a solid support to prevent submersion of the plate and incubated for 60 minutes. […] Opti-Fluor-O (Packard) was added to each sample and incorporated radioactivity was quantified utilizing a Wallac 1450 MicroBeta Plus liquid scintillation counter. […]
No carbohydrates were added to the control sample. RT activity was determined at 3, 6, 9, 13, 17, and 20 days post-infection (PI) with X4 strain LAI/IIIB.

HIV-1 MN = assay: P-24 assay, syncytia and CPE in infected PBMCs; format: cell-based
Method: PBMCs were isolated as described above and incubated with HIV-1 MN (NIH AIDS reagent program, catalog #137) at 37° C. for 3 hours in 15 mL tubes. Test groups included uninfected PBMCs, infected PBMCs with no N-glycolylneuraminic acid, and infected PBMCs plus N-glycolylneuraminic acid. […] Excess virus was removed by washing the cells with PBS one time then the cells were exposed to N-glycolylneuraminic acid. P24 output was measured using the DuPont P24 assay kit (optical density (OD) in Table 15). Syncytia formation was examined as well as cytopathic effects (CPE). […] Sample #7 (p24 123×10^6 pg HIV-1P24/ml) was excluded from the mean P24 output calculation due to a sampling error.

HepG2 = assay: Cell proliferation in treated cell lines; format: cell-based, human; conditions: treated cell line; 0 to 200 μM or 1000 μM
TNFα = TNFα production in latently infected promonocytic U1 cells, ELISA; format: cell-based; conditions: read-out: Inhibition of TNFα Production % of Control
Method: TNFα production was determined by an enzyme linked immunosorbent assay (ELISA) in a competitive format, using a commercially available anti-TNFα antibody. Inhibition of TNFα production is reported as percent of saline control in Table 18 and was dose dependent.

HIV-1IIIB = assay: CEM-SS cell-based assay, inhibition of HIV-induced cell killing (XTT); conditions: 3.2 μM to 1 mM
Molt-4 = assay: Cell proliferation in treated cell lines; format: cell-based, human; conditions: treated cell line; 0 to 200 μM or 1000 μM

Q: `O=C(CO)N[C@H]1[C@H]([C@H](O)[C@H](O)CO)OC(O)(C(=O)O)C[C@@H]1O` (some centres unmarked) [N-glycolylneuraminic acid] was tested. Which “% Confluency (day 5)” value (DU-145) did it give?
A: The value was 100%.

Q: What about the anti-HIV activity (HIV-1RF) of the same compound?
A: The anti-HIV activity was “did not display anti-HIV activity”.

Q: What about the “% Confluency (day 5)” value (HT1080) of the same compound?
A: The value was 100%.

Q: What about the TC50 (PBMCs) of the same compound?
A: The TC50 was over 1000 µM.

Q: And the “Inhibition of gp120 Binding (% of control)” value (“Inhibition … (% of control)” for short) (gp120; 20 μm/ml)?
A: The value was 9.8%.

Q: What about the “Inhibition … (% of control)” value (gp120; 80 μm/ml) of the same compound?
A: Its value is 57.6%.

Q: And the “Inhibition … (% of control)” value (gp120; 200 μm/ml)?
A: The value was 86.8%.

Q: And the “% Confluency (day 5)” value (HSF)?
A: The value was 100%.

Q: And the “RT activity in treated cells (in words)” value (X4 strain LAI/IIIB)?
A: The value was “RT activity was decreased”.

Q: And the CPE (HIV-1 MN; dilution 1:2)?
A: The CPE was “negative”.

Q: What about the Syncytia (HIV-1 MN; dilution 1:2) of the same compound?
A: Its Syncytia is “negative”.

Q: And the CPE (HIV-1 MN; dilution 1:4)?
A: The CPE was “negative”.

Q: And the Syncytia (HIV-1 MN; dilution 1:4)?
A: The Syncytia was “negative”.

Q: And the CPE (HIV-1 MN; dilution 1:8)?
A: The CPE was “negative”.

Q: And the Syncytia (HIV-1 MN; dilution 1:8)?
A: Its Syncytia is “negative”.

Q: And the CPE (HIV-1 MN; dilution 1:16)?
A: The CPE was “negative”.

Q: What about the Syncytia (HIV-1 MN; dilution 1:16) of the same compound?
A: The Syncytia was “negative”.

Q: What about the CPE (HIV-1 MN; dilution 1:32) of the same compound?
A: The CPE was “negative”.

Q: And the Syncytia (HIV-1 MN; dilution 1:32)?
A: Its Syncytia is “negative”.

Q: And the CPE (HIV-1 MN; dilution 1:64)?
A: The CPE was “negative”.

Q: What about the Syncytia (HIV-1 MN; dilution 1:64) of the same compound?
A: Its Syncytia is “negative”.

Q: And the “% Confluency (day 5)” value (HepG2)?
A: The value was 50%.

Q: And the inhibition at 0.1 µM (TNFα; 0.1 μM)?
A: Its inhibition at 0.1 µM is 0%.

Q: And the inhibition at 0.3 µM (TNFα; 0.3 μM)?
A: The inhibition at 0.3 µM was 0%.

Q: What about the inhibition at 10 µM (TNFα; 10 μM) of the same compound?
A: Its inhibition at 10 µM is 9.8%.

Q: What about the inhibition at 30 µM (TNFα; 30 μM) of the same compound?
A: The inhibition at 30 µM was 22.6%.

Q: And the inhibition at 100 µM (TNFα; 100 μM)?
A: Its inhibition at 100 µM is 96%.

Q: What about the anti-HIV activity (HIV-1IIIB) of the same compound?
A: Its anti-HIV activity is “did not display anti-HIV activity”.

Q: And the “% Confluency (day 5)” value (Molt-4)?
A: Its value is 50%.

From patent publication US20050159390A1, “Treatment and prevention of HIV and other viral infections” (priority 1998, published 2005)
